Measured values taken from ChEMBL document CHEMBL5620353, “Novel antifungal triazoles with alkynyl-methoxyl side chains: Design, synthesis, and biological activity evaluation” (Eur J Med Chem, 2023).
Converted amounts (≈) assume the structure as drawn. The source made the active and inactive calls. No cut-off for these calls is given here.

Experiments:
Candida albicans [1] = assay: Antifungal activity against Candida albicans SC5314 assessed as inhibition of fungal growth incubated for 48 hrs by microbroth dilution method; type: functional
Candida albicans [2] = assay: Antifungal activity against Candida albicans 10231 assessed as inhibition of fungal growth incubated for 48 hrs by microbroth dilution method; type: functional
Nakaseomyces glabratus [3] = assay: Antifungal activity against Candida glabrata 537 assessed as inhibition of fungal growth incubated for 48 hrs by microbroth dilution method; type: functional
Candida parapsilosis = assay: Antifungal activity against Candida parapsilosis 22019 assessed as inhibition of fungal growth incubated for 48 hrs by microbroth dilution method; type: functional; settings: Lodderomyces parapsilosis
Pichia kudriavzevii = assay: Antifungal activity against Candida krusei 4996 assessed as inhibition of fungal growth incubated for 48 hrs by microbroth dilution method; type: functional
Candida tropicalis = assay: Antifungal activity against Candida tropicalis 8915 assessed as inhibition of fungal growth incubated for 48 hrs by microbroth dilution method; type: functional
Cryptococcus neoformans [4] = assay: Antifungal activity against Cryptococcus neoformans 32,609 assessed as inhibition of fungal growth incubated for 72 hrs by microbroth dilution method; type: functional
Aspergillus fumigatus = assay: Antifungal activity against Aspergillus fumigatus 7544 assessed as inhibition of fungal growth incubated for 72 hrs by microbroth dilution method; type: functional
Nakaseomyces glabratus [5] = assay: Potency index, ratio of fluconazole MIC to test compound MIC for antifungal activity against Candida glabrata 537 assessed as inhibition of fungal growth incubated for 48 hrs by microbroth dilution method; type: functional
Candida albicans [6] = assay: Antifungal activity against fluconazole-resistant Candida albicans 904 assessed as inhibition of fungal growth incubated for 48 hrs by microbroth dilution method; type: functional
[Candida] auris [7] = Antifungal activity against fluconazole-resistant Candida auris 891 assessed as inhibition of fungal growth incubated for 48 hrs by microbroth dilution method; type: functional; settings: Candidozyma auris
[Candida] auris [8] = Antifungal activity against fluconazole-resistant Candida auris 918 assessed as inhibition of fungal growth incubated for 48 hrs by microbroth dilution method; type: functional; settings: Candidozyma auris
Cryptococcus neoformans [9] = assay: Antifungal activity against Cryptococcus neoformans 32,609 assessed as reduction in fungal growth and viability at 0.5 to 1 ug/ml incubated for 48 hrs by spot assay; type: functional, organism-based; settings: dose 0.5-1 µg/ml
Candida albicans [10] = assay: Antifungal activity against Candida albicans SC5314 assessed as reduction in fungal growth measured after 6 to 24 hrs by optical density based method; type: functional, organism-based; settings: dose 0.0625-16 µg/ml, time 6-24 hrs
Candida albicans [11] = assay: Antifungal activity against Candida albicans SC5314 assessed as inhibition of fungal growth at 0.0625 ug/ml measured after 12 hrs by optical density based method; type: functional
Candida albicans [12] = assay: Antibiofilm activity against Candida albicans SC5314 preformed biofilms at 64 ug/ml incubated for 24 hrs by XTT reduction assay relative to control; type: functional; design: scale not given: the % may be the effect or the level left; settings: dose 64 µg/ml
Candida albicans [13] = assay: Antibiofilm activity against Candida albicans SC5314 preformed biofilms incubated for 24 hrs by XTT reduction assay; type: functional, organism-based; settings: dose 0.25-64 µg/ml
[14] = Cytotoxicity against HUVEC cells assessed as cell survival at <16 ug/ml incubated for 24 hrs by CCK-8 assay relative to control; type: toxicity, cell-based; settings: human, dose < 16 µg/ml, read-out: Survival
[15] = Cytotoxicity against HUVEC cells assessed as cell survival at 128 ug/ml incubated for 24 hrs by CCK-8 assay relative to control; type: toxicity, cell-based; settings: human, at 128 µg/mL, read-out: Survival
[16] = Cytotoxicity against HUVEC cells assessed as reduction in cell survival incubated for 24 hrs by CCK-8 assay; type: toxicity, cell-based; settings: human
[17] = Selectivity index, ratio of IC50 for HUVEC cells to MIC for Candida albicans SC5314; type: toxicity; settings: human, HUVEC cells versus Candida albicans SC5314; read-out: Selectivity Index
[18] = Selectivity index, ratio of IC50 for HUVEC cells to MIC for Candida glabrata 537; type: toxicity; settings: human, HUVEC cells versus Candida glabrata 537; read-out: Selectivity Index
[19] = Hemolytic activity in rabbit RBC at 64 ug/ml incubated for 1 hr by absorbance based analysis; type: toxicity, cell-based, Oryctolagus cuniculus, Erythrocyte; settings: rabbit red blood cells, at 64 µg/mL, read-out: Activity
Cytochrome P450 2C9 = Cytochrome P450 2C9 (Homo sapiens, UniProt P11712); assay: Inhibition of human CYP2C9 using diclofenac as substrate prewarmed for 10 mins followed by NADPH addition and measured after 10 mins by LC-MS/MS analysis; type: ADME
Cytochrome P450 2C19 = Cytochrome P450 2C19 (Homo sapiens, UniProt P33261); assay: Inhibition of human CYP2C19 using mephenytoin as substrate prewarmed for 10 mins followed by NADPH addition and measured after 10 mins by LC-MS/MS analysis; type: ADME
Cytochrome P450 2D6 = Cytochrome P450 2D6 (Homo sapiens, UniProt P10635); assay: Inhibition of human CYP2D6 using dextromethorphan as substrate prewarmed for 10 mins followed by NADPH addition and measured after 10 mins by LC-MS/MS analysis; type: ADME
Cytochrome P450 3A4 = Cytochrome P450 3A4 (Homo sapiens, UniProt P08684); assay: Inhibition of human CYP3A4 using midazolam as substrate prewarmed for 10 mins followed by NADPH addition and measured after 10 mins by LC-MS/MS analysis; type: ADME
[20] = Metabolic stability in human liver microsomes assessed as half life at 1 uM preincubated for 10 mins followed by NADPH addition and measured upto 60 mins by LC-MS/MS analysis; type: ADME, Microsome; settings: time < 70 min
Saccharomyces cerevisiae [21] = assay: Antifungal activity against recombinant Saccharomyces cerevisiae Y525 overexpressing CaMdr1 assessed as inhibition of fungal growth incubated for 48 hrs by microbroth dilution method; type: functional
Saccharomyces cerevisiae [22] = assay: Antifungal activity against recombinant Saccharomyces cerevisiae Y570 overexpressing CaCdr1 assessed as inhibition of fungal growth incubated for 48 hrs by microbroth dilution method; type: functional
Saccharomyces cerevisiae [23] = assay: Antifungal activity against recombinant Saccharomyces cerevisiae Y2411 overexpressing ScErg11 assessed as inhibition of fungal growth incubated for 48 hrs by microbroth dilution method; type: functional
Saccharomyces cerevisiae [24] = assay: Antifungal activity against recombinant Saccharomyces cerevisiae Y2300 overexpressing ScErg11 assessed as inhibition of fungal growth incubated for 48 hrs by microbroth dilution method; type: functional
Saccharomyces cerevisiae [25] = assay: Antifungal activity against recombinant Saccharomyces cerevisiae Y2513 overexpressing ScErg11 Y140H assessed as inhibition of fungal growth incubated for 48 hrs by microbroth dilution method; type: functional
Saccharomyces cerevisiae [26] = assay: Antifungal activity against recombinant Saccharomyces cerevisiae Y2374 overexpressing CgErg11 assessed as inhibition of fungal growth incubated for 48 hrs by microbroth dilution method; type: functional
Saccharomyces cerevisiae [27] = assay: Antifungal activity against recombinant Saccharomyces cerevisiae Y2459 overexpressing CaErg11 CaCpr assessed as inhibition of fungal growth incubated for 48 hrs by microbroth dilution method; type: functional
Saccharomyces cerevisiae [28] = assay: Antifungal activity against recombinant Saccharomyces cerevisiae Y2721 overexpressing CpErg11 CpCpr assessed as inhibition of fungal growth incubated for 48 hrs by microbroth dilution method; type: functional
Saccharomyces cerevisiae [29] = assay: Antifungal activity against recombinant Saccharomyces cerevisiae Y2716 overexpressing CpErg11 Y132F CpCpr assessed as inhibition of fungal growth incubated for 48 hrs by microbroth dilution method; type: functional
Saccharomyces cerevisiae [30] = assay: Resistance index, ratio of MIC for recombinant Saccharomyces cerevisiae Y525 overexpressing CaMdr1 to MIC for recombinant Saccharomyces cerevisiae Y2411 overexpressing ScErg11; type: functional

Sequence of Cytochrome P450 2C19 (P33261 whole entry): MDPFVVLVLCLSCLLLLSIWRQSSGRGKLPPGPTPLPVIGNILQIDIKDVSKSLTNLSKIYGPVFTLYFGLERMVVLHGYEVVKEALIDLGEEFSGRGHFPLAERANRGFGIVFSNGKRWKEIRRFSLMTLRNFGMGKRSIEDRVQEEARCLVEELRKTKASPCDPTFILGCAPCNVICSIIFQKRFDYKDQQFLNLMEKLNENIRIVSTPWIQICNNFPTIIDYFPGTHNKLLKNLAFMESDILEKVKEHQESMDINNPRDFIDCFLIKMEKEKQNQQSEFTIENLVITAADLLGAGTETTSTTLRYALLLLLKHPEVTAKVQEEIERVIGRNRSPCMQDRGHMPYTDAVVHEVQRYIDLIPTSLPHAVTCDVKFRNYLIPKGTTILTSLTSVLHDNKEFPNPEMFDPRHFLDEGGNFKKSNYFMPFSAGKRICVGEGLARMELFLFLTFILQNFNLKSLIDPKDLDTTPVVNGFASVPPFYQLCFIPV
Sequence of Cytochrome P450 2D6 (P10635 whole entry): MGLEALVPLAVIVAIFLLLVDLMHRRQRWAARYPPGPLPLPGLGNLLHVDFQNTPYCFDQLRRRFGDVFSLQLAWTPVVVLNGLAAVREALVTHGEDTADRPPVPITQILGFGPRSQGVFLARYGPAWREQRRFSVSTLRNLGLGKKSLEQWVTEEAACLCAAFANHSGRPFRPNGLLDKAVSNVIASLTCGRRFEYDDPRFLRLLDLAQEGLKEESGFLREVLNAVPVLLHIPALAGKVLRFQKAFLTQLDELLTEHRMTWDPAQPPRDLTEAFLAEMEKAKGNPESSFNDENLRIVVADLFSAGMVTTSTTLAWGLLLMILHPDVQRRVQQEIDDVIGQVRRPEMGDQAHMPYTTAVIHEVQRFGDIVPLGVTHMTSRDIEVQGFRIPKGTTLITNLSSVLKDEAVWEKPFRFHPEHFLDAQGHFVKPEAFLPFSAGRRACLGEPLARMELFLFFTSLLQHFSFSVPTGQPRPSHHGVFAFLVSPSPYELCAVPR
Sequence of Cytochrome P450 2C9 (P11712 whole entry): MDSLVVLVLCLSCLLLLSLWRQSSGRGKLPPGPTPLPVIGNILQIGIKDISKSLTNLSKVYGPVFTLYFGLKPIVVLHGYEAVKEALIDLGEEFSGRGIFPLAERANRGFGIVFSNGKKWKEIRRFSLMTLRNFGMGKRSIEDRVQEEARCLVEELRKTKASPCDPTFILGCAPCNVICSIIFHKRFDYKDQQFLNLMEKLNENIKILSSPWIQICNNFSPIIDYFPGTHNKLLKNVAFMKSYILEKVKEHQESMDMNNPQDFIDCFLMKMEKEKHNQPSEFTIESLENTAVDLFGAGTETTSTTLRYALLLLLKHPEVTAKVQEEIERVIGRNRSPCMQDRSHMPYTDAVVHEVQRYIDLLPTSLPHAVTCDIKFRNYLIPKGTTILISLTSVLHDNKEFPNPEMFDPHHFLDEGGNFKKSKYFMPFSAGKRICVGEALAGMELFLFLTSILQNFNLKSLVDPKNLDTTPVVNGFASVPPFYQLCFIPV
Sequence of Cytochrome P450 3A4 (P08684 whole entry): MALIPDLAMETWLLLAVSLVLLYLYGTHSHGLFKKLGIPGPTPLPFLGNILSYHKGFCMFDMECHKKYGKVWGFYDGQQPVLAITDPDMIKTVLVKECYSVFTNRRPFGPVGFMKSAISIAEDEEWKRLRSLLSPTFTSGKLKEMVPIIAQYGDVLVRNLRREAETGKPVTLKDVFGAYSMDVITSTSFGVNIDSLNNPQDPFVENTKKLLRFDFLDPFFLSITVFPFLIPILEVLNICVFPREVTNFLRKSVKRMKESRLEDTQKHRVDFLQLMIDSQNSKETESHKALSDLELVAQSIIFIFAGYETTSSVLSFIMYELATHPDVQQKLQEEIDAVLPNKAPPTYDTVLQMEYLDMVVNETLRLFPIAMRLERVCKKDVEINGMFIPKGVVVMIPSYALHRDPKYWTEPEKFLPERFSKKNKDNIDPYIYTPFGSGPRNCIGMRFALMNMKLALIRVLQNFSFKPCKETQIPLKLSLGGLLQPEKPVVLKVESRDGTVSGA

Row | SMILES | MIC (Candida albicans [1]) | MIC (Candida albicans [2]) | MIC (Nakaseomyces glabratus [3]) | MIC (Candida parapsilosis) | MIC (Pichia kudriavzevii) | MIC (Candida tropicalis) | MIC (Cryptococcus neoformans [4]) | MIC (Aspergillus fumigatus) | Ratio (Nakaseomyces glabratus [5]) | MIC (Candida albicans [6]) | MIC ([Candida] auris [7]) | MIC ([Candida] auris [8]) | Activity (Cryptococcus neoformans [9]) | Activity (Candida albicans [10]) | inhibition at 0.0625 µg/mL (Candida albicans [11]) | Activity (Candida albicans [12]) | Activity (Candida albicans [13]) | viability at 24 h [14] | viability at 24 h, 128 ug/ml [15] | IC50 at 24 h [16] | also measured
1 | C[C@@H](OCC#Cc1ccc(C#N)cc1)[C@](O)(Cn1cncn1)c1ccc(F)cc1F | ≤ 0.125 µg/mL | 8 µg/mL (≈ 19.6 µM) | ≤ 0.125 µg/mL | 1 µg/mL (≈ 2.45 µM) | 8 µg/mL (≈ 19.6 µM) | ≤ 0.125 µg/mL | 0.5 µg/mL (≈ 1.22 µM) | 1 µg/mL (≈ 2.45 µM) | >=8 | 16 µg/mL (≈ 39.2 µM) | 16 µg/mL (≈ 39.2 µM) | 32 µg/mL (≈ 78.4 µM) | Active | Dose-Dependent Effect | 100% | 55.46% | Dose-Dependent Effect | > 80% | 34.9% | 88.5 µg/mL (≈ 217 µM) | selectivity ratio [17]: > 500; selectivity ratio [18]: > 500; hemolysis at 1 h, 64 ug/ml [19]: 1.22%; IC50 (Cytochrome P450 2C9): 0.034 µM; IC50 (Cytochrome P450 2C19): 0.566 µM; IC50 (Cytochrome P450 2D6): 27.2 µM; IC50 (Cytochrome P450 3A4): 0.607 µM; half-life at 1 µM [20]: 54.5 min; MIC (Saccharomyces cerevisiae [21]): 0.25 µg/mL; MIC (Saccharomyces cerevisiae [22]): 16 µg/mL; MIC (Saccharomyces cerevisiae [23]): 0.008 µg/mL; MIC (Saccharomyces cerevisiae [24]): 0.031 µg/mL; MIC (Saccharomyces cerevisiae [25]): 0.016 µg/mL; MIC (Saccharomyces cerevisiae [26]): 0.031 µg/mL; MIC (Saccharomyces cerevisiae [27]): 0.016 µg/mL; MIC (Saccharomyces cerevisiae [28]): 0.063 µg/mL; MIC (Saccharomyces cerevisiae [29]): 0.063 µg/mL; Ratio (Saccharomyces cerevisiae [30]): >=16
2 | C[C@@H](OCC#Cc1ccc(F)cc1F)[C@](O)(Cn1cncn1)c1ccc(F)cc1F | ≤ 0.125 µg/mL | 8 µg/mL (≈ 19.1 µM) | ≤ 0.125 µg/mL | 0.5 µg/mL (≈ 1.19 µM) | 4 µg/mL (≈ 9.54 µM) | 32 µg/mL (≈ 76.3 µM) | 0.5 µg/mL (≈ 1.19 µM) | 4 µg/mL (≈ 9.54 µM) | >=8 | 16 µg/mL (≈ 38.2 µM) | 32 µg/mL (≈ 76.3 µM) | 16 µg/mL (≈ 38.2 µM) | Active | Dose-Dependent Effect | 100% | 51.39% | Dose-Dependent Effect | > 80% | 36% | 76.4 µg/mL (≈ 182 µM) | selectivity ratio [17]: > 500; selectivity ratio [18]: > 500; hemolysis at 1 h, 64 ug/ml [19]: 1.32%; IC50 (Cytochrome P450 2C9): 0.023 µM; IC50 (Cytochrome P450 2C19): 0.073 µM; IC50 (Cytochrome P450 2D6): 23.8 µM; IC50 (Cytochrome P450 3A4): 0.566 µM; half-life at 1 µM [20]: 50.8 min; MIC (Saccharomyces cerevisiae [21]): 0.25 µg/mL; MIC (Saccharomyces cerevisiae [22]): 32 µg/mL; MIC (Saccharomyces cerevisiae [23]): 0.008 µg/mL; MIC (Saccharomyces cerevisiae [24]): 0.063 µg/mL; MIC (Saccharomyces cerevisiae [25]): 0.031 µg/mL; MIC (Saccharomyces cerevisiae [26]): 0.063 µg/mL; MIC (Saccharomyces cerevisiae [27]): 0.016 µg/mL; MIC (Saccharomyces cerevisiae [28]): 0.063 µg/mL; MIC (Saccharomyces cerevisiae [29]): 0.063 µg/mL; Ratio (Saccharomyces cerevisiae [30]): >=16
3 | C[C@@H](OCC#Cc1ccncc1)[C@](O)(Cn1cncn1)c1ccc(F)cc1F | ≤ 0.125 µg/mL | 32 µg/mL (≈ 83.2 µM) | ≤ 0.125 µg/mL | ≤ 0.125 µg/mL | 4 µg/mL (≈ 10.4 µM) | 32 µg/mL (≈ 83.2 µM) | ≤ 0.125 µg/mL | 4 µg/mL (≈ 10.4 µM) | >=8 | 32 µg/mL (≈ 83.2 µM) | 32 µg/mL (≈ 83.2 µM) | 16 µg/mL (≈ 41.6 µM) | Active | Dose-Dependent Effect | 100% | 50.31% | Dose-Dependent Effect | > 80% | 28.7% | 64.9 µg/mL (≈ 169 µM) | selectivity ratio [17]: > 500; selectivity ratio [18]: > 500; hemolysis at 1 h, 64 ug/ml [19]: 1.36%; IC50 (Cytochrome P450 2C9): 0.039 µM; IC50 (Cytochrome P450 2C19): 0.394 µM; IC50 (Cytochrome P450 2D6): 5.81 µM; IC50 (Cytochrome P450 3A4): 0.309 µM; half-life at 1 µM [20]: 7.35 min; MIC (Saccharomyces cerevisiae [21]): 0.25 µg/mL; MIC (Saccharomyces cerevisiae [22]): 4 µg/mL; MIC (Saccharomyces cerevisiae [23]): 0.008 µg/mL; MIC (Saccharomyces cerevisiae [24]): 0.031 µg/mL; MIC (Saccharomyces cerevisiae [25]): 0.031 µg/mL; MIC (Saccharomyces cerevisiae [26]): 0.063 µg/mL; MIC (Saccharomyces cerevisiae [27]): 0.016 µg/mL; MIC (Saccharomyces cerevisiae [28]): 0.063 µg/mL; MIC (Saccharomyces cerevisiae [29]): 0.063 µg/mL; Ratio (Saccharomyces cerevisiae [30]): >=16
